In patent US6110122A, “Breath test for assessing hepatic function” (priority 1999, dated 2000):
Where “and” joins values, the source holds several entries; their conditions need not be identical. Equal entries are not always repeated.

How the values were obtained:
cytosolic function = conditions: patients with alcoholic disease; cited from earlier work
[1] = cited from earlier work
hepatic mitochondria = conditions: in vivo; cited from earlier work
[2] = test system: hepatic mitochondrial function; experiment: MBT in patients with liver disease, reproducibility and correlation with Child-Pugh score
[3] = cited from earlier work; remark: listed apart in the source
[4] = test system: hepatic mitochondrial function; experiment: Effect of alcohol and ASA ingestion on the MBT in healthy controls; format: in vivo, human; conditions: for effect of ingestion on MBT (in words): healthy controls
Method: […] The protocol was then identical to that described previously in Example 1.
The protocol for breath collection was followed as described previously.
The maximum percent dose oxidized per minute was calculated for each substrate following the procedure outlined above in Example 1.

[5] = test system: hepatic mitochondrial function; conditions: in vivo
mitochondrial function = conditions: therapeutic doses of ASA; cited from earlier work

## O=C[C@H](O)[C@@H](O)[C@@H](O)[C@H](O)CO [galactose]
Cytosolic function
  aminopyrine breath test / galactose elimination capacity (in words): normal

## CC(C)CC(=O)C(=O)O [KICA, ketoisocaproic acid]
[1]
  stability in solution (in words): instability in solution
Hepatic mitochondria
  reduction in ^14 CO2 production: 75%

## CSCC[C@H](N)C(=O)O [methionine, L-1-^13 C-methionine]
[2]; all liver patients
  MBT result for all patients: 2.85 % dose/hour
[2]; cirrhotic patients, individual
  MBT 1: 5.01 % dose/hour and 6.30 % dose/hour and 2.47 % dose/hour and 7.18 % dose/hour and 5.66 % dose/hour and 3.20 % dose/hour and 3.55 % dose/hour and 1.67 % dose/hour and 4.36 % dose/hour and 2.63 % dose/hour and 2.10 % dose/hour and 0.99 % dose/hour and 2.02 % dose/hour and 1.31 % dose/hour and 1.34 % dose/hour and 1.87 % dose/hour and 1.94 % dose/hour and 0.46 % dose/hour and 1.80 % dose/hour and 0.54 % dose/hour and 1.11 % dose/hour
[2]; cirrhotic patients, individual, mean of MBT 1 and 2
  MBT Mean: 4.55 % dose/hour and 6.56 % dose/hour and 2.58 % dose/hour and 6.43 % dose/hour and 5.69 % dose/hour and 3.02 % dose/hour and 3.47 % dose/hour and 2.03 % dose/hour and 4.34 % dose/hour and 2.73 % dose/hour and 2.11 % dose/hour and 1.99 % dose/hour and 2.13 % dose/hour and 1.32 % dose/hour and 1.34 % dose/hour and 1.82 % dose/hour and 2.04 % dose/hour and 0.53 % dose/hour and 1.40 % dose/hour and 0.54 % dose/hour and 0.97 % dose/hour and 1.38 % dose/hour
[2]; cirrhotic patients, individual, repeat within 12 h
  MBT 2: 4.09 % dose/hour and 6.81 % dose/hour and 2.69 % dose/hour and 5.68 % dose/hour and 5.71 % dose/hour and 2.84 % dose/hour and 3.39 % dose/hour and 2.39 % dose/hour and 4.31 % dose/hour and 2.83 % dose/hour and 2.11 % dose/hour and 2.98 % dose/hour and 2.24 % dose/hour and 1.33 % dose/hour and 1.77 % dose/hour and 2.14 % dose/hour and 0.59 % dose/hour and 0.99 % dose/hour and 0.82 % dose/hour and 1.44 % dose/hour
[2]; cirrhotic patients, mean
  MBT 1, group mean: 2.67 % dose/hour
  MBT 2, group mean: 2.86 % dose/hour
[2]; cirrhotic patients, mean of MBT 1 and 2
  MBT Mean, group mean: 2.76 % dose/hour
[2]; patients with CP score A
  MBT value (mean±SD), CP A: 5.16±1.61 % dose/hour
[2]; patients with CP score B
  MBT value (mean±SD), CP B: 2.81±0.94 % dose/hour
[2]; patients with CP score C
  MBT value (mean±SD), CP C: 1.45±0.55 % dose/hour
[3]; cirrhotic patients
  correlation r of methionine clearance with CP score: -0.80
  correlation r of methionine clearance with GEC: 0.82
[3]; intravenous, liver disease / cirrhotic patients vs healthy controls
  plasma clearance of methionine (in words): reduced
[3]; liver disease vs healthy controls
  fasting plasma methionine level (in words): elevated
[4]; ASA group (n=11) before ASA
  MBT, Mean T1 and T2 (baseline), group mean: 6.17 % dose/hour
[4]; alcohol group (n=9) before alcohol
  MBT, Mean T1 and T2 (baseline), group mean: 7.37 % dose/hour
[5]
  mean difference between MBT test 1 and test 2 (95% CI): -0.073 (-0.475,0.330)

## Cc1c(N(C)C)c(=O)n(-c2ccccc2)n1C [aminopyrine]
Cytosolic function
  aminopyrine breath test / galactose elimination capacity (in words): normal

## CC(=O)Oc1ccccc1C(=O)O [ASA, acetylsalicylic acid]
Mitochondrial function
  change detected by ^13 C-KICA test (in words): mitochondrial changes
[4]; ASA, n=11, p<0.001
  mean change of MBT from baseline with ASA: 36±36%
[4]
  effect of ingestion on MBT (in words): increases
[4]; individual subject, ASA 30 mg/kg 15 min prior to MBT
  MBT after ASA ingestion: 9.47 % dose/hour and 10.08 % dose/hour and 8.88 % dose/hour and 8.73 % dose/hour and 7.77 % dose/hour and 7.34 % dose/hour and 9.24 % dose/hour and 6.47 % dose/hour and 8.61 % dose/hour and 6.88 % dose/hour and 9.27 % dose/hour

## CCO [alcohol]
[4]; alcohol, n=9, p<0.003
  mean change of MBT from baseline with alcohol: -59±17%
[4]
  effect of ingestion on MBT (in words): significantly decreases
[4]; individual subject, 60 cc vodka 15 min prior to MBT
  MBT after alcohol ingestion: 3.36 % dose/hour and 4.54 % dose/hour and 2.76 % dose/hour and 2.22 % dose/hour and 2.97 % dose/hour and 3.39 % dose/hour and 1.86 % dose/hour and 3.52 % dose/hour and 2.45 % dose/hour
[4]; n=9, 60 cc vodka 15 min prior to MBT
  MBT after alcohol ingestion, group mean: 3.01 % dose/hour and 3.01±0.81 % dose/hour
Hepatic mitochondria
  effect on KICA decarboxylation (in words): deceases KICA decarboxylation

## O=C([O-])c1ccccc1O.[Na+] [sodium salicylate]
Hepatic mitochondria
  effect on KICA decarboxylation (in words): increase in KICA decarboxylation
